Source: US12097174B2, “Methods and agents that enhance myogenic progenitor cell engraftment” (President and Fellows of Harvard College, priority 2018, dated 2024)

What was measured:
mouse satellite cells [1] = experiment: Mouse satellite cell transplantation into pre-injured TA muscle, engraftment by bioluminescence imaging (BLI); type: in vivo; details: for BLI radiance (mean±SEM): 10 μM NFA (n=13) or 5 μM LPA (n=17) prior to transplant, vehicle 8,214,000±1,462,346; for engraftment efficiency of mouse satellite cells: 4 h at 37° C. with 10 μM NFA or 5 μM LPA, 5000 cells per recipient
Procedure: Specifically, BLI radiance (mean±SEM) for muscle precursors treated with 10 μM NFA or 5 μM LPA prior to transplant were 27,236,923±6,849,754 p/s (n=13) and 25,637,059±4,410,195 p/s (n=17), respectively, in comparison to 8,214,000±1,462,346 p/s (n=15) vehicle-treated cells (1-way ANOVA between vehicle-treated group and either NFA or LPA treated group, p≤0.01) (FIGS. 8A-8C).
To this end, mouse satellite cells were again sorted from double-transgenic (luc+GFP+) mice and exposed them to NFA, LPA, or vehicle (DMSO) under the optimal dose conditions established using the fish model (see above; 4 h. treatment at 37° C. with 10 μM of NFA or 5 μM of LPA), prior to transplant. Compound-treated cells were then recovered and, after washing out the media containing the compounds (NFA, LPA or DMSO), counted and transplanted at 5000 cells per recipient into the pre-injured TA muscles of non-transgenic FVB hosts. The kinetics of muscle engraftment were subsequently assessed by weekly BLI imaging of transplanted limbs. Similar to the fish experiments, both NFA and LPA enhanced the engraftment efficiency of mouse satellite cells in these in vivo transplantation assays (FIGS. 14C and 14D), indicating conserved effects of these pro-myogenic compounds on mammalian muscle precursor cells.
Mouse satellite cells were isolated as previously described (Maesner et al., 2016; Sherwood et al., 2004; Xu et al., 2013). 25 μl (0.03 mg/ml) of cardiotoxin (CDTX) (Latoxan) was injected 24 h prior to transplantation into the TA muscle of recipient mice (FVB/NJ). Luc-GFP tagged satellite cells were isolated and plated on a collagen/laminin-coated plate and treated with NFA (10 μM), LPA (5 μM) or DMSO, as the vehicle control, in culture media for 4 hours at 37° C. The culture media contained 78% F10 (GIBCO), 20% horse serum (Atlanta Biologics), 1% penicillin-streptomycin (Invitrogen), 1% GlutaMAX (Invitrogen), and 5 ng/ml bFGF (Sigma). After 4 hours, cells were washed with DPBS, harvested, and counted, followed by transplantation of 5000 satellite cells intramuscularly into the CDTX pre-injured TA of FVB recipients.
Mice were anesthetized with isoflurane and weighed. 150 mg/kg of luciferin (Goldbio) was administered by IP injection. BLI was acquired using IVIS Spectrum every 2 minutes, at F-stop=1.0 at 5 min after luciferin injection. The acquired images were analyzed and the highest captured radiance in the region of interest (ROI) was measured.

ZeMPCs = experiment: Calcium imaging in Fura-2, AM treated ZeMPCs (single-cell imaging); type: cell-based, zebrafish; details: 10 μM NFA, 5 μM LPA, 10 μM ionomycin; 10-20 seconds after loading
Procedure: Fura-2, AM treated ZeMPCs were exposed to 10 μM NFA, 5 μM LPA, 10 μM lonomycin (as a positive control) and DMSO (as vehicle control) to visualize their effect on intracellular calcium ion concentration using single-cell imaging. […] Scale bar 50 μm.
(§1) The ZeMPCs and C2C12 cells were incubated with Fura-2, AM (Thermo Fisher Sci F1225), a cell permeant fluorescent calcium ion indicator, for 45 minutes at 28.5° C. and 37° C., respectively, followed by imaging with Celldiscoverer7 Microscope (Zeiss). 20 seconds after imaging initiation the treatment was added to the cells and continued for a total of 2-3 minutes.

C2C12 cells = experiment: Calcium imaging in Fura-2, AM treated C2C12 cells (single-cell imaging); type: cell-based, mouse; details: 10 μM NFA, 5 μM LPA; 10-20 seconds after loading
Procedure: Fura-2, AM treated C2C12 cells were exposed to 10 μM NFA, 5 μM LPA or DMSO as vehicle control to visualize the effect on intracellular calcium ion concentration using single-cell imaging. […] Scale bar 50 μm.
as §1

mouse satellite cells [2] = experiment: RNA sequencing of treated mouse satellite cells; type: cell-based
Source text: To gain insight into the mechanisms through which LPA and NFA treatment might enhance donor cell engraftment in vertebrate muscle, RNA sequencing analysis were next performed in treated ZeMPCs and in mouse satellite cells. Comparison of differential gene expression in NFA-treated or LPA-treated cells to vehicle-treated cells indicated upregulation of calcium-dependent genes in response to these compounds in both ZeMPCs (FIG. 21) and mouse satellite cells (FIGS. 15A and 15B).
Isolated mouse muscle satellite cells and ZeMPCs were used to prepare RNA after in vitro chemical treatment. Total RNA was isolated by the micro RNeasy kit (QIAGEN). cDNA was prepared using SMART Seq v4 Ultra Low RNA-Seq kit for 48 reactions (Takara) and a Nextera kit was used for library construction. Sequencing data FASTQ files for samples were processed in tophat-cufflinks workflow in a Linux server operating system to output gene-level abundance estimates and statistical inference as gene-level raw counts. Those raw counts for samples were input into the cuffdiff for differential gene expression analysis. The assigned GEO accession number for the RNA sequencing data is GSE143801.

muscle progenitor cells = experiment: Measurement of Ca2+ transients in fura-2 AM-loaded muscle progenitor cells; type: cell-based
Procedure: Measurement of Ca2+ transients was performed in fura-2 AM-loaded cells.
Thus, it is possible that the enhanced engraftment capacity of muscle progenitor cells exposed to these compounds involves a common Ca^2+-dependent signaling events (FIG. 9).

Compound | BLI radiance (mean±SEM) (mouse satellite cells [1]) | engraftment efficiency of mouse satellite cells (mouse satellite cells [1]) | intracellular calcium ion concentration (ZeMPCs) | intracellular calcium ion concentration (C2C12 cells) | expression of calcium-dependent genes vs vehicle-treated cells (mouse satellite cells [2]) | cytoplasmic Ca2+ concentration (muscle progenitor cells) | expression of myoblast fusion related genes, including myomaker (Tmem8c) and Ccl8 (mouse satellite cells [2])
O=C(O)c1cccnc1Nc1cccc(C(F)(F)F)c1 [NFA, niflumic acid] | 27,236,923±6,849,754 p/s | enhanced | increase | increase | upregulation | stimulate increases | 
lysophosphatidic acid [LPA] | 25,637,059±4,410,195 p/s | enhanced | increase | increase | upregulation | stimulate increases | upregulated
